According to patent EP0476645B1, “Calcium uptake inhibitors” (MERRELL DOW PHARMACEUTICALS INC., priority 1990, dated 1992):
Like-named read-outs stand apart in the source and are kept apart here. One block for each molecule: values may come before it.

Tested on: Rat PMNL
Test: Myeloperoxidase (MPO) release from stimulated PMNL
Type: cell-based
Details: for inhibition at 1 µM / inhibition at 3 µM / inhibition at 10 µM / inhibition at 30 µM / inhibition at 100 µM: Rattus norvegicus, PMNL, inhibition of MPO release; for inhibition at 1 µM: 1 µM compound; for inhibition at 3 µM: 3 µM compound; for inhibition at 10 µM: 10 µM compound; for inhibition at 30 µM: 30 µM compound; for inhibition at 100 µM: 100 µM compound; for inhibition of release of myeloperoxidase: fMLP with cytochalasin B, opsonized zymosan or ionomycin stimulus, result in words
Procedure: Rat PMNL were obtained from exudates resulting from peritoneal injection of 6 mL of 8% sodium caseinate. Eighteen hours after injection rats were killed by carbon dioxide inhalation and the peritoneal cavity lavaged with Hank's balanced salt solution (HBSS). After concentration of the PMNL by centrifugation, contaminating erythrocytes were removed by hypotonic lysis. The PMNL were then washed twice by centrifugation (400 x g for 10 minutes) and resuspended in HBSS. Cell viability was greater than 90% by Trypan Blue exclusion and greater than 90% of the cells were PMNL by Wright-Giemsa stain.
MPO release was determined using the MPO catalyzed oxidation of o-dianisidine. The experiments were carried out in 96-well microtiter plates (Webster and Henson, 1978). In each well, 50 microliter (µl) aliquots of a PMNL suspension (2 x 10⁷ cells/mL in HBSS) were incubated with 50 µl of HBSS containing vehicle (0.3% DMSO) or inhibitor for 30 minutes at 37°C. The final DMSO concentration never exceeded 0.3% and was constant throughout each experiment. To activate the PMNL, 50 µl of one of the following were added for 30 minutes at 37°C: N-formyl-Met-Leu-Phe (fMLP; 0.1 µM); phorbol myristate acetate (PMA, 200 ng/mL); or rat serum opsonized zymosan (OZ; 2.6 mg/mL, prepared by the method of Ward et al., 1983). The stimuli were added in 50 µl HBSS which also contained the compounds or vehicle, as appropriate, to avoid changing the inhibitor concentration. Cell activation was terminated by centrifugation of the plates at 600 x g for 5 minutes at 22°C. Aliquots (100 µl) of supernatant were removed from each well and transferred to a 96-well flatbottomed microtiter plate for the MPO assay. To each aliquot of supernatant was added 100 µl of a freshly prepared solution containing 50 µl of 0.2 M sodium phosphate buffer (pH 6.2), 25 µl of 3.9 mM o-dianisidine and 25 µl of 0.015 M hydrogen peroxide. Blanks were obtained using the same solution without hydrogen peroxide. The plates were mixed and then incubated at room temperature in the dark for about 15 minutes. Absorbances of the samples were measured at 450 nm.
Rat PMNL were isolated in HBSS containing Ca⁺². As summarized in the figures below, fMLP stimulation of rat PMNL in the presence of cytochalasin B or with opsonized zymosan or with ionomycin results in the release of myeloperoxidase (fMLP/MPO, OZ/MPO, and ION/MPO; columns 2, 4, and 6 respectively).

[1] = fMLP stimulus in the presence of cytochalasin B, read-out: IMLP/MPO
[2] = ionomycin stimulus, read-out: ION/MPO
[3] = opsonized zymosan stimulus, read-out: OZ/MPO

- inhibition of release of myeloperoxidase: dose dependent inhibition
SMILES: O=C(C#Cc1ccncc1)c1ccccc1 [MDL 101,098, 1-Phenyl-3-(4-pyridinyl)-2-propyne-1-one]
- inhibition at 1 µM [1]: 2.9%
- inhibition at 3 µM [1]: 7.5%
- inhibition at 10 µM [1]: 34.9%
- inhibition at 30 µM [1]: 80.8%
- inhibition at 100 µM [1]: 96.2%
- inhibition at 1 µM [2]: -2.8%
- inhibition at 3 µM [2]: 0%
- inhibition at 10 µM [2]: 5.7%
- inhibition at 30 µM [2]: 12.7%
- inhibition at 100 µM [2]: 88.4%
- inhibition at 1 µM [3]: 5.4%
- inhibition at 3 µM [3]: 14.7%
- inhibition at 10 µM [3]: 48.7%
- inhibition at 30 µM [3]: 92.2%
- inhibition at 100 µM [3]: 97.2%

- inhibition of release of myeloperoxidase: dose dependent inhibition
SMILES: CN(C)c1ccc(C(=O)C#Cc2ccncc2)cc1 [MDL 102,175, 1-(4-Dimethylaminophenyl)-3-(4-pyridinyl)-2-propyne-1-one]
- inhibition at 1 µM [1]: 12.6%
- inhibition at 3 µM [1]: 27.9%
- inhibition at 10 µM [1]: 70.6%
- inhibition at 30 µM [1]: 104%
- inhibition at 100 µM [1]: 113%
- inhibition at 1 µM [2]: 0.8%
- inhibition at 3 µM [2]: 1.5%
- inhibition at 10 µM [2]: 21.3%
- inhibition at 30 µM [2]: 20.5%
- inhibition at 100 µM [2]: 83.4%
- inhibition at 1 µM [3]: 16.9%
- inhibition at 3 µM [3]: 26.6%
- inhibition at 10 µM [3]: 78.5%
- inhibition at 30 µM [3]: 107%
- inhibition at 100 µM [3]: 118%
